Reference: ChEMBL document CHEMBL1287680, “C-11 diamino cryptolepine derivatives NSC748392, NSC748393, and NSC748394: anticancer profile and G-quadruplex stabilization” (Bioorg Med Chem Lett, 2010)

Legend:
Nucleic Acid [1] = settings: Homo sapiens
Description: Binding affinity to human G-quadruplex DNA assessed as change in melting temperature by FRET-melting assay

Nucleic Acid [2] = settings: Homo sapiens; remark: listed apart in the source
Description: Binding affinity to human duplex DNA assessed as change in melting temperature by FRET-melting assay

SK-OV-3 = experiment: cells; settings: Homo sapiens
Description: Anticancer activity against human SKOV3 cells

OVCAR-4 = experiment: cells; settings: Homo sapiens
Description: Anticancer activity against human OVCAR4 cells

OVCAR-3 = experiment: cells; settings: Homo sapiens
Description: Anticancer activity against human OVCAR-3 cells

IGROV-1 = experiment: cells; settings: Homo sapiens
Description: Anticancer activity against human IGROV1 cells

UACC-62 = experiment: cells; settings: Homo sapiens
Description: Anticancer activity against human UACC62 cells

UACC-257 = experiment: cells; settings: Homo sapiens
Description: Anticancer activity against human UACC257 cells

M14 = experiment: cells; settings: Homo sapiens
Description: Anticancer activity against human M14 cells

Malme-3M = experiment: cells; settings: Homo sapiens
Description: Anticancer activity against human MALME-3M cells

LOX IMVI = experiment: cells; settings: Homo sapiens
Description: Anticancer activity against human LOXIMVI cells

U-251 = experiment: cells; settings: Homo sapiens
Description: Anticancer activity against human U251 cells

SNB-75 = experiment: cells; settings: Homo sapiens
Description: Anticancer activity against human SNB75 cells

SNB-19 = experiment: cells; settings: Homo sapiens
Description: Anticancer activity against human SNB19 cells

SF-539 = experiment: cells; settings: Homo sapiens
Description: Anticancer activity against human SF539 cells

SF-295 = experiment: cells; settings: Homo sapiens
Description: Anticancer activity against human SF295 cells

SF-268 = experiment: cells; settings: Homo sapiens
Description: Anticancer activity against human SF268 cells

NCI-H23 = experiment: cells; settings: Homo sapiens
Description: Anticancer activity against human NCI-H23 cells

HOP-92 = experiment: cells; settings: Homo sapiens
Description: Anticancer activity against human HOP92 cells

HOP-62 = experiment: cells; settings: Homo sapiens
Description: Anticancer activity against human HOP62 cells

EKVX = experiment: cells; settings: Homo sapiens
Description: Anticancer activity against human EKVX cells

SR = experiment: cells; settings: Homo sapiens
Description: Anticancer activity against human SR cells

MOLT-4 = experiment: cells; settings: Homo sapiens
Description: Anticancer activity against human MOLT4 cells

HL-60(TB) = experiment: cells; settings: Homo sapiens
Description: Anticancer activity against human HL-60(TB) cells

CCRF-CEM = experiment: cells; settings: Homo sapiens
Description: Anticancer activity against human CCRF-CEM cells

MDA-MB-468 = experiment: cells; settings: Homo sapiens
Description: Anticancer activity against human MDA-MB-468 cells

MDA-MB-435 = experiment: cells; settings: Homo sapiens
Description: Anticancer activity against human MDA-MB-435 cells

cells = settings: Homo sapiens, Hs-578T
Description: Anticancer activity against human Hs 578T cells

MDA-MB-231 = experiment: cells; settings: Homo sapiens
Description: Anticancer activity against human MDA-MB-231 cells

NCI/ADR-RES = experiment: cells; settings: Homo sapiens
Description: Anticancer activity against human NCI/ADR-RES cells

PC-3 = experiment: cells; settings: Homo sapiens
Description: Anticancer activity against human PC3 cells

TK-10 = experiment: cells; settings: Homo sapiens
Description: Anticancer activity against human TK10 cells

A498 = experiment: cells; settings: Homo sapiens
Description: Anticancer activity against human A498 cells

in vivo = settings: mouse, cancer cell lines
Description: Toxicity in cancer cells containing hollow fiber implanted mouse

C[n+]1c2ccccc2c(Nc2ccc(N3CCCCC3)cc2)c2[nH]c3ccccc3c21.[Cl-]
ΔTm (Nucleic Acid [1]): 4.2 °C
ΔTm (Nucleic Acid [2]): 1.2 °C
GI50 (SK-OV-3; SK-OV-3, read-out: pGI50 (converted)): 513 nM
CC50 (SK-OV-3; SK-OV-3, read-out: pLC50 (converted)): 4270 nM
TGI (SK-OV-3; SK-OV-3, read-out: pTGI): 1860 nM
GI50 (OVCAR-4; OVCAR-4, read-out: pGI50 (converted)): 363 nM
CC50 (OVCAR-4; OVCAR-4, read-out: pLC50 (converted)): 3980 nM
TGI (OVCAR-4; OVCAR-4, read-out: pTGI): 1350 nM
GI50 (OVCAR-3; OVCAR-3, read-out: pGI50 (converted)): 224 nM
CC50 (OVCAR-3; OVCAR-3, read-out: pLC50 (converted)): 933 nM
TGI (OVCAR-3; OVCAR-3, read-out: pTGI): 457 nM
GI50 (IGROV-1; IGROV-1, read-out: pGI50 (converted)): 229 nM
CC50 (IGROV-1; IGROV-1, read-out: pLC50 (converted)): 3470 nM
TGI (IGROV-1; IGROV-1, read-out: pTGI): 1170 nM
GI50 (UACC-62; UACC-62, read-out: pGI50 (converted)): 427 nM
TGI (UACC-62; UACC-62, read-out: pTGI): 1910 nM
GI50 (UACC-257; UACC-257, read-out: pGI50 (converted)): 1230 nM
TGI (UACC-257; UACC-257, read-out: pTGI): 2690 nM
GI50 (M14; M14, read-out: pGI50 (converted)): 389 nM
CC50 (M14; M14, read-out: pLC50 (converted)): 4070 nM
TGI (M14; M14, read-out: pTGI): 1450 nM
GI50 (Malme-3M; read-out: pGI50 (converted)): 417 nM
CC50 (Malme-3M; read-out: pLC50 (converted)): 4570 nM
TGI (Malme-3M; read-out: pTGI): 1700 nM
GI50 (LOX IMVI; read-out: pGI50 (converted)): 148 nM
CC50 (LOX IMVI; read-out: pLC50 (converted)): 1450 nM
TGI (LOX IMVI; read-out: pTGI): 398 nM
GI50 (U-251; U-251, read-out: pGI50 (converted)): 288 nM
CC50 (U-251; U-251, read-out: pLC50 (converted)): 3630 nM
TGI (U-251; U-251, read-out: pTGI): 1230 nM
GI50 (SNB-75; SNB-75, read-out: pGI50 (converted)): 692 nM
CC50 (SNB-75; SNB-75, read-out: pLC50 (converted)): 4470 nM
TGI (SNB-75; SNB-75, read-out: pTGI): 2000 nM
GI50 (SNB-19; SNB-19, read-out: pGI50 (converted)): 427 nM
CC50 (SNB-19; SNB-19, read-out: pLC50 (converted)): 4370 nM
TGI (SNB-19; SNB-19, read-out: pTGI): 1780 nM
GI50 (SF-539; SF-539, read-out: pGI50 (converted)): 646 nM
CC50 (SF-539; SF-539, read-out: pLC50 (converted)): 4470 nM
TGI (SF-539; SF-539, read-out: pTGI): 1950 nM
GI50 (SF-295; SF-295, read-out: pGI50 (converted)): 398 nM
CC50 (SF-295; SF-295, read-out: pLC50 (converted)): 4370 nM
TGI (SF-295; SF-295, read-out: pTGI): 1580 nM
GI50 (SF-268; SF-268, read-out: pGI50 (converted)): 676 nM
CC50 (SF-268; SF-268, read-out: pLC50 (converted)): 6030 nM
TGI (SF-268; SF-268, read-out: pTGI): 2190 nM
GI50 (NCI-H23; NCI-H23, read-out: pGI50 (converted)): 398 nM
CC50 (NCI-H23; NCI-H23, read-out: pLC50 (converted)): 6610 nM
TGI (NCI-H23; NCI-H23, read-out: pTGI): 1700 nM
GI50 (HOP-92; HOP-92, read-out: pGI50 (converted)): 263 nM
CC50 (HOP-92; HOP-92, read-out: pLC50 (converted)): 5130 nM
TGI (HOP-92; HOP-92, read-out: pTGI): 1200 nM
GI50 (HOP-62; HOP-62, read-out: pGI50 (converted)): 741 nM
CC50 (HOP-62; HOP-62, read-out: pLC50 (converted)): 5250 nM
TGI (HOP-62; HOP-62, read-out: pTGI): 2190 nM
GI50 (EKVX; read-out: pGI50 (converted)): 427 nM
CC50 (EKVX; read-out: pLC50 (converted)): 4680 nM
TGI (EKVX; read-out: pTGI): 1860 nM
GI50 (SR; read-out: pGI50 (converted)): 3800 nM
CC50 (SR; read-out: pLC50 (converted)): > 100000 nM
TGI (SR; read-out: pTGI): > 100000 nM
GI50 (MOLT-4; MOLT-4, read-out: pGI50 (converted)): 70.8 nM
CC50 (MOLT-4; MOLT-4, read-out: pLC50 (converted)): > 100000 nM
TGI (MOLT-4; MOLT-4, read-out: pTGI): 8710 nM
GI50 (HL-60(TB); HL-60, read-out: pGI50 (converted)): 617 nM
CC50 (HL-60(TB); HL-60, read-out: pLC50 (converted)): > 100000 nM
GI50 (CCRF-CEM; read-out: pGI50 (converted)): 162 nM
CC50 (CCRF-CEM; read-out: pLC50 (converted)): 2000 nM
TGI (CCRF-CEM; read-out: pTGI): 427 nM
GI50 (MDA-MB-468; MDA-MB-468, read-out: pGI50 (converted)): 135 nM
CC50 (MDA-MB-468; MDA-MB-468, read-out: pLC50 (converted)): 891 nM
TGI (MDA-MB-468; MDA-MB-468, read-out: pTGI): 347 nM
GI50 (MDA-MB-435; MDA-MB-435, read-out: pGI50 (converted)): 447 nM
CC50 (MDA-MB-435; MDA-MB-435, read-out: pLC50 (converted)): 4900 nM
TGI (MDA-MB-435; MDA-MB-435, read-out: pTGI): 1660 nM
GI50 (cells; read-out: pGI50 (converted)): 275 nM
TGI (cells; read-out: pTGI): 1000 nM
GI50 (MDA-MB-231; MDA-MB-231, read-out: pGI50 (converted)): 490 nM
CC50 (MDA-MB-231; MDA-MB-231, read-out: pLC50 (converted)): 6030 nM
TGI (MDA-MB-231; MDA-MB-231, read-out: pTGI): 2090 nM
GI50 (NCI/ADR-RES; read-out: pGI50 (converted)): 617 nM
TGI (NCI/ADR-RES; read-out: pTGI): 2450 nM
GI50 (PC-3; PC-3, read-out: pGI50 (converted)): 195 nM
CC50 (PC-3; PC-3, read-out: pLC50 (converted)): 3240 nM
TGI (PC-3; PC-3, read-out: pTGI): 631 nM
GI50 (TK-10; TK-10, read-out: pGI50 (converted)): 1000 nM
CC50 (TK-10; TK-10, read-out: pLC50 (converted)): 5620 nM
TGI (TK-10; TK-10, read-out: pTGI): 2400 nM
GI50 (A498; A498, read-out: pGI50 (converted)): 178 nM
CC50 (A498; A498, read-out: pLC50 (converted)): 2140 nM
TGI (A498; A498, read-out: pTGI): 537 nM
MTD (in vivo): 160 mg/kg
